PMC8619673 (Cells, 2021)

What was measured:
Aβ-GFP SH-SY5Y cells = experiment: Neurite outgrowth analysis; assay type: cell-based, Human; conditions: 5 µM; for Neurite total length: induced untreated 23.9, uninduced 31.2; for Neurite length: untreated 25.3
Procedure: Aβ-GFP SH-SY5Y cells (6 × 10^4 cells) were seeded on a 24-well plate with retinoic acid (10 µM) on day 1. Tested coumarins (5 µM) and doxycycline (5 μg/mL) were added on day 2, as described. On day 8, the cells were washed with phosphate-buffered saline (PBS) twice and fixed in 4% paraformaldehyde at 4 °C for 15 min. Cells were permeabilized with Triton X-100 (0.1%) for 10 min, blocked with bovine serum albumin (3%) for 20 min, and stained with anti-neuronal TUBB3 antibody (1:1000; Covance, Princeton, NJ, USA) at 4 °C overnight. The next day, cells were washed with PBS twice and stained by a secondary donkey anti-rabbit Alexa Fluor® 555 antibody (1:1000; Thermo Fisher Scientific) and 4′,6-diamidino-2-phenylindole (DAPI; 0.1 µg/mL; Sigma-Aldrich) at room temperature for 1 h. Neuronal images from at least 60 individual fields (150–250 neurons per field) per experiment were captured at excitation 531/40 nm and emission 593/40 nm wavelengths using an ImageXpress micro confocal high-content imaging system (Molecular Devices). Neurite total length (μm) and numbers of process (the number of primary neurites originated from the cell body of a neuron) and branch (the number of secondary neurites extended from primary neurites) were analyzed using a MetaXpress neurite outgrowth application module (Molecular Devices). For each sample, around 6000 cells were analyzed in each of three independent experiments.
(§1) Lentiviral short hairpin RNA (shRNA) targeting TRKB (TRCN0000002243, TRCN0000002245, and TRCN0000002246) and a negative-scrambled control (TRC2.Void) were obtained from the National RNAi Core Facility, IMB/GRC, Academia Sinica (Taipei, Taiwan). As described, cells were plated on 6- or 24-well plates, with retinoic acid added on day 1. Cells were infected with lentivirus (multiplicity of infection, 3 for each shRNA), with polybrene (8 µg/mL; Sigma-Aldrich) on the next day. Cells were pretreated with tested compounds (5 µM) for 8 h after changing medium, followed by doxycycline on day 3. Cells were collected for further analysis on day 9. The hairpin sequences of targeting shRNA were below: • TRCN0000002243: 5’-[…]ctcgag[…]-3’ • TRCN0000002245: 5’-[…]ctcgagATGTT-[…]-3’ • TRCN0000002246: 5’-[…]ctcgag[…]-3’ • TRC2.Void: 5’-[…]ctcgag[…]-3’

TRKB = experiment: Western blot, TRKB and p-TRKB; assay type: cell-based, Human; conditions: 5 µM; for p-TRKB (Y516) protein level relative to uninduced cells (100%): induced untreated 40%; for p-TRKB (Y817) protein level relative to uninduced cells (100%): induced untreated 71%; for TRKB expression relative to uninduced cells (100%): scrambled shRNA-infected Aβ-expressing cells, untreated 80%
Procedure: Cellular proteins were prepared using a lysis buffer containing NaCl (150 mM), ethylene diamine tetraacetic acid (EDTA, 1 mM, pH8.0), Tris-HCl (50 mM, pH8.0), ethylene glycol tetraacetic acid (EGTA, 1 mM, pH8.0), sodium dodecyl sulfate (SDS, 0.1%), sodium deoxycholate (SD, 0.5%), Triton X-100 (1%), and protease (Sigma-Aldrich), and phosphatase (Abcam, Cambridge, MA, USA) inhibitor cocktails. After quantitation by protein assay kit (Bio-Rad, Hercules, CA, USA), 20 µg proteins were separated by SDS-polyacrylamide (10%) gel electrophoresis and transferred to polyvinylidene difluoride (PVDF) membranes (Sigma-Aldrich) using a Mini Trans-Blot cell (Bio-Rad). After blocking, the membrane was probed with anti-TRKB, anti-p-TRKB (Y516), anti-p-TRKB (Y817) (1:500; Cell Signaling, Danvers, MA, USA), anti-ERK, anti-p-ERK (T202/Y204) (1:1000; Cell Signaling), anti-AKT, anti-p-AKT (S473) (1:1000; Cell Signaling), anti-CREB, anti-p-CREB (S133) (1:1000; Millipore, Billerica, MA, USA), anti-BDNF, anti-BCL2 (1:500; Santa Cruz Biotechnology, Santa Cruz, CA, USA), anti-BAX (1:1000; Cell Signaling), anti-β-tubulin (1:500; Sigma-Aldrich), or anti-GAPDH (1:1000, MDBio, Taipei, Taiwan) antibody. The immune complexes were detected using goat anti-mouse or goat anti-rabbit IgG antibody conjugated with horseradish peroxidase (1:5000; GeneTex, Irvine, CA, USA) and chemiluminescent substrate (Millipore).
as §1

in vitro = conditions: PAMPA
Procedure: PAMPA was used to predict the penetration of the tested compounds across the BBB. […] The filter PVDF membrane (pore size 0.45 μm; Millipore) was coated with 4 μL of porcine polar brain lipid (20 mg/mL; Avanti Polar Lipids, Alabaster, AL, USA) in dodecane and the acceptor well filled with 200 μL of 5% DMSO in PBS. The filter plate was carefully placed on the donor plate to form a sandwich plate at room temperature for 18 h. After the permeation time, the filter and donor plates were separated. The concentration of the tested compound in the donor and acceptor wells was measured by an AB Sciex QTrap 5500 mass spectrometer (Applied Biosystems) linked to a 1200 HPLC system (Agilent Technologies, Palo Alto, CA, USA). The concentrations of the QC compounds were determined by a Tecan Infinite M200 Pro microplate reader (Switzerland). The effective permeability coefficient (Pe) was calculated as described. Each compound was tested in triplicate.

[1] = TRKB shRNA-infected cells, untreated 2.9
[2] = induced untreated 1.8, uninduced 2.8
[3] = induced untreated 3.3, uninduced 4.4
[4] = scrambled shRNA-infected cells, untreated 2.4
[5] = scrambled shRNA-infected cells, untreated 3.5
[6] = BBB Permeability Classification
[7] = Measured Pe (effective permeability)

Row | SMILES | Neurite process number (Aβ-GFP SH-SY5Y cells; [1]) | Neurite branch number (Aβ-GFP SH-SY5Y cells; [2]) | Neurite process number (Aβ-GFP SH-SY5Y cells; [3]) | Neurite total length (Aβ-GFP SH-SY5Y cells) | Neurite branch number (Aβ-GFP SH-SY5Y cells; [4]) | Neurite process number (Aβ-GFP SH-SY5Y cells; [5]) | Neurite length (Aβ-GFP SH-SY5Y cells; scrambled shRNA-infected cells) | p-TRKB (Y516) protein level relative to uninduced cells (100%) (TRKB) | p-TRKB (Y817) protein level relative to uninduced cells (100%) (TRKB) | TRKB expression relative to uninduced cells (100%) (TRKB) | Papp at 18 h, 1 μM (in vitro; [6]) | Papp at 18 h, 1 μM (in vitro; [7])
1 | CCOC(=O)c1cc2c(O)cccc2oc1=O [ZN014, ethyl 5-hydroxy-2-oxo-2H-chromene-3-carboxylate] | 3.5 | 2.4–2.5 | 4.2–4.3 | 29.1–29.3 μm | 3.0–3.1 | 3.9–4.0 | 30.7–30.9 µm | 92–100% | 94–108% | 77–81% | < 2 ×10⁻⁶ cm/s | 0.56 ± 0.01 ×10⁻⁶ cm/s
2 | O=C(/C=C/c1ccccc1O)c1c(O)c2ccccc2oc1=O [ZN015, (E)-4-hydroxy-3-(3-(2-hydroxyphenyl)acryloyl)-2H-chromen-2-one] | 3.5 | 2.4–2.5 | 4.2–4.3 | 29.1–29.3 μm | 3.0–3.1 | 3.9–4.0 | 30.7–30.9 µm | 92–100% | 94–108% | 77–81% | > 4 ×10⁻⁶ cm/s | 5.16 ± 0.11 ×10⁻⁶ cm/s
